Data reported in ChEMBL document CHEMBL1156132, “2-Aminopyrazolo[1,5-a]pyrimidines as potent and selective inhibitors of JAK2” (Bioorg Med Chem Lett, 2009).

Key:
Details in all cases: Sprague-Dawley, rat, iv, 1 mg/kg
[1] = in vivo
Description: Half life in Sprague-Dawley rat at 1 mg/kg, iv

[2] = in vivo; remark: listed apart in the source
[3] = in vivo; remark: listed apart in the source
Description: Clearance in Sprague-Dawley rat at 1 mg/kg, iv

SMILES: C[C@@H](Nc1cc(-c2c(N)nn3cccnc23)ncn1)c1ccc(F)cc1
- half-life [1]: 54 min
- Vd [2]: 5.1 L/kg
- clearance [3]: 104 mL/min/kg
